Source: patent US20140107151A1, “TYROSINE KINASE INHIBITORS” (Principal Biopharma Inc., priority 2011, published 2014)

What follows are compounds tested against human recombinant Btk (Homo sapiens, UniProt Q06187) (assay: Btk Enzymatic Activity Assay (Caliper-based kinase assay)). Settings: human recombinant Btk 2 nM, ATP 40 μM, peptide substrate 1 μM, room temperature for 3 h.
Format: biochemical
Protocol: A Caliper-based kinase assay (Caliper Life Sciences, Hopkinton, Mass.) was used to measure inhibition of Btk kinase activity of a compound of Formula (I). […] The reaction was then terminated with EDTA, final concentration 20 mM and the phosphorylated reaction product was quantified on a Caliper Desktop Profiler (Caliper LabChip 3000).

human recombinant Btk, sequence (Q06187 whole entry): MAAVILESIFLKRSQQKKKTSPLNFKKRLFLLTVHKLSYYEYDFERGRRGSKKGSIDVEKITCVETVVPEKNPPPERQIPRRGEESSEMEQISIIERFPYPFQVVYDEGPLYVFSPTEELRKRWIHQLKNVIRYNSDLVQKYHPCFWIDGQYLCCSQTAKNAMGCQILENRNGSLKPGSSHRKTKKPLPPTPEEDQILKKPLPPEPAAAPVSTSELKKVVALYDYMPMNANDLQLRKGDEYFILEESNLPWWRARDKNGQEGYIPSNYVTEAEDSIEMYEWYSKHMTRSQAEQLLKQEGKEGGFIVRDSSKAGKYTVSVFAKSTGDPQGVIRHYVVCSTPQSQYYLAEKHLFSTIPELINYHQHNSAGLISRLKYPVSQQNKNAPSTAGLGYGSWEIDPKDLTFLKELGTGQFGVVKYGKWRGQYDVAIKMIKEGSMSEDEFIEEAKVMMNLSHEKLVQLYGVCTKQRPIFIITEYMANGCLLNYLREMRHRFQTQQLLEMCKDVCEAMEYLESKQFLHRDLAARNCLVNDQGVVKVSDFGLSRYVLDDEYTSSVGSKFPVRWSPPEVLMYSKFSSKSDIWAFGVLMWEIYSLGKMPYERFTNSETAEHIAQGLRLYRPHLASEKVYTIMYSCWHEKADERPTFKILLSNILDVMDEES

Row | IC50 | Structure (SMILES)
1 | 1.2 nM | CC(C)C=C(C#N)C(=O)N1CCC(Cc2cc3[nH]nc(N)c3c(-c3ccc(Oc4ccccc4)cc3)n2)C1 (centres unmarked) [Example 10A, 2-(3-((3-amino-4-(4-phenoxyphenyl)-1H-pyrazolo[4,3-c]pyridin-6-yl)methyl)-pyrrolidine-1-carbonyl)-4-methylpent-2-enenitrile]
2 | 15.5 nM | CC(C)C=C(C#N)C(=O)N1CCC[C@H](c2cc3[nH]nc(N)c3c(-c3ccc(Oc4ccccc4)cc3)n2)C1 [Example 11A, (S)-2-(3-(3-amino-4-(4-phenoxyphenyl)-1H-pyrazolo[4,3-c]pyridin-6-yl)piperidine-1-carbonyl)-4-methylpent-2-enenitrile]
3 | 13 nM | CC(C)C=C(C#N)C(=O)N1CCC[C@H]1c1cc2[nH]nc(N)c2c(-c2ccc(Oc3ccccc3)cc2)n1 [Example 11B, (S)-2-(2-(3-amino-4-(4-phenoxyphenyl)-1H-pyrazolo[4,3-c]pyridin-6-yl)pyrrolidine-1-carbonyl)-4-methylpent-2-enenitrile]
4 | 13.6 nM | CC(C)C=C(C#N)C(=O)N1CCC[C@@H]1c1cc2[nH]nc(N)c2c(-c2ccc(Oc3ccccc3)cc2)n1 [Example 11C, (R)-2-(2-(3-amino-4-(4-phenoxyphenyl)-1H-pyrazolo[4,3-c]pyridin-6-yl)pyrrolidine-1-carbonyl)-4-methylpent-2-enenitrile]

Second part, the compound before the results:

Row | Structure (SMILES) | IC50
5 | N#CC(=CC1CC1)C(=O)N1CCC(c2cc3[nH]nc(N)c3c(-c3ccc(Oc4ccccc4)cc3)n2)CC1 [Example 8, 2-(4-(3-amino-4-(4-phenoxyphenyl)-1H-pyrazolo[4,3-c]pyridin-6-yl)piperidine-1-carbonyl)-3-cyclopropylacrylonitrile] | 2 nM
6 | N#CC(=CC1CC1)C(=O)N1CCCC(c2cc3[nH]nc(N)c3c(-c3ccc(Oc4ccccc4)cc3)n2)C1 (centres unmarked) [Example 9, 2-(3-(3-amino-4-(4-phenoxyphenyl)-1H-pyrazolo[4,3-c]pyridin-6-yl)piperidine-1-carbonyl)-3-cyclopropylacrylonitrile] | 1.1 nM
7 | N#CC(=CC1CC1)C(=O)N1CCCC1Cc1cc2[nH]nc(N)c2c(-c2ccc(Oc3ccccc3)cc2)n1 (centres unmarked) [Example 10, 2-(2-((3-amino-4-(4-phenoxyphenyl)-1H-pyrazolo[4,3-c]pyridin-6-yl)-methyl)pyrrolidine-1-carbonyl)-3-cyclopropylacrylonitrile] | 2 nM
8 | CC(C)C=C(C#N)C(=O)N1CCC[C@@H](c2cc3[nH]nc(N)c3c(-c3ccc(Oc4ccccc4)cc3)n2)C1 [Example 11, (R)-2-(3-(3-amino-4-(4-phenoxyphenyl)-1H-pyrazolo[4,3-c]pyridin-6-yl)piperidine-1-carbonyl)-4-methylpent-2-enenitrile] | 9.3 nM
